Measured values reported in US20060083711A1, “Methods and products related to the intracellular delivery of polysaccharides” (Massachusetts Institute of Technology, priority 2004, published 2006).
“And” between values parts separate entries of the source, which are not always exact repeats. Equal entries are not always repeated. “Also recorded” adds a separate entry of the source.

Assays:
[1] = test system: PC-3 cells; assay: PC-3 proliferation assay (whole cell number); assay type: cell-based, human; settings: for effect of kinase inhibitor on heparin-mediated growth inhibition: 50 μM LY294002, 20 μM PD98059, 20 μM U0126, 1 μM SB203580, heparin 500 ng/ml
Method: PC-3 cells were grown until confluence in 75 cm^2 flasks. Each flask was washed with 20 ml PBS, and treated with 3 ml trypsin-EDTA at 37° C. for 3-5 minutes, until cells detached. Cells were centrifuged for 3 min at 195×g. The supernatant was aspirated, and the cells were resuspended in 10 ml media. The cell density was measured using an electronic cell counter, and the suspension was diluted to 50,000 cells/ml. The suspension was plated 1 ml/well into 24-well tissue culture plates. After a 24 hour incubation in a 5% CO2, 37° C. humidified incubator, the media was aspirated, the wells were washed with serum free media, and the cells were supplemented with media containing 0.1% FBS and incubated for 24 hours. Cells were sequentially treated with antibodies, kinase inhibitors, heparin, and FGF2. Antibodies to FGF2, FGFR1, or FGFR3 were added to yield a final dilution of 1:100. Kinase inhibitors were added sufficient to yield final concentrations of 50 μM LY294002, 20 μM PD98059, 1 μM SB203580, and 20 μM U0126. Heparin was added at 500 ng/ml unless otherwise noted. To produce heparin digests, heparin was treated with PBS, hepI, or hepIII for 30 minutes, and boiled for 30 minutes. prior to addition to cells. Digestion was verified by UV spectroscopy at 232 nm. FGF2 was added at 100 ng/ml unless otherwise specified. Cells were then incubated for 72 hours. Wells were then washed twice with PBS and treated with 0.5 ml trypsin-EDTA/well and incubated for 10 minutes at 37° C. Whole cell number was determined using an electronic cell counter. Data were averaged over three experiments, each consisting of four wells per condition.
PC-3 cells were grown until confluence in 75 cm^2 flasks. Each flask was washed with 20 ml PBS, and treated with 3 ml trypsin-EDTA at 37° C. for 3-5 minutes, until cells detached. Cells were centrifuged for 3 minutes at 195×g, the supernatant was aspirated, and the cells were resuspended in 10 ml media. The cell suspension was diluted to 50,000 cells/ml based on the readings of an electronic cell counter. The suspension was plated 1 ml/well into 24-well tissue culture plates. After a 24 hour incubation in a 5% CO2, 37° C. humidified incubator, the cells were washed with serum free media, supplemented with media containing 0.1% FBS, and incubated for 24 hours. Cells were treated with heparin, HS or FGF2 as appropriate. Heparin was added at 500 ng/ml unless otherwise noted. FGF2 was added at 100 ng/ml unless otherwise specified. Cells were then incubated for 72 hours. Wells were then washed twice with PBS and treated with 0.5 ml trypsin-EDTA/well and incubated for 10 minutes at 37° C. Whole cell number was determined using an electronic cell counter. Data were averaged over three experiments, each consisting of four wells per condition.
For antibody and kinase inhibitor experiments, antibodies and kinase inhibitors were added prior to HSGAGs or FGF2. […]
To produce heparin digests, heparin was treated with PBS, heparinase I (hepI), or hepIII for 30 minutes, and boiled for 30 prior to addition to cells. Digestion was verified and quantified by UV spectroscopy at 232 nm (27). […]
A preliminary screen was performed on PC-3 cells by proliferation assay using the nine polymers described at polymer:heparin (w/w) ratios of 10:1, 20:1, 30:1, 40:1, and 60:1. The three best formulations (polymer and ratio) were selected and analyzed further. […] In vitro assessment of polymer activity was measured by proliferation assay with a heparin concentration of 1 μg/ml. […]

[2] = test system: Daudi cells; assay: Whole cell proliferation assay; assay type: cell-based, human; settings: for direct effect of kinase inhibitor on Daudi whole cell number: FBS-deficient media, 50 μM LY294002, 20 μM PD98059, or 1 μM SB203580
Method: For proliferation assays using Daudi cells, cells were collected from 75 cm^2 flasks, washed three times with FBS-deficient media or proliferation media, and resuspended into 10 ml of the same media. Cells were diluted to 1×10^5 cells/ml based on the reading of an electronic cell counter, and plated 1 ml/well in 24-well plates. Wells were treated with PBS, heparin, A5, or A5-heparin conjugate in 10 μl volumes, and incubated for 72 hours at 37° C., 5% CO2. A5-heparin conjugates were additionally supplemented with 50 μM LY294002, 20 μM PD98059, or 1 μM SB203580, 50 mM sodium chlorate, or 10 ng/ml FGF2, as appropriate. Whole cell number was converted to a percent growth relative to PBS treatment. Proliferation assays on NFS-1.0 C-1 and J.CaM1.6 cells were performed as described for Daudi cells.
To probe the role of sulfation patterns and fine structure in inducing the effects of A5-heparin conjugates, heparin was partially digested with heparinases prior to conjugation. Heparin was diluted to 20 μg/ml in PBS and incubated with 5 mU/ml hepI or hepIII or an equivalent volume of PBS for 30 minutes. Digestion was confirmed by UV spectroscopy at 232 nm. Digested heparin was subsequently conjugated with A5 as described. A5 binding to the heparin fragments was confirmed using an Azure A competition assay as previously described. Daudi cells, plated as described at 1×10^5 cells/ml in 24-well plates, 1 ml/well, were treated with conjugates at a heparin concentration of 1 μg/ml or an equivalent volume of PBS. After incubating for 72 hours at 37° C., 5% CO2, the resultant whole cell count was determined by electronic cell counter, and data were converted to a percent growth relative to Daudi treated with PBS alone.
To examine the effects of protamine sulfate and heparinases on Daudi growth, cells were collected from 75 cm^2 flasks, pelletted, and resuspended into 10 ml of propagation media. Cells were diluted to 1×10^5 cells/ml based on the reading of an electronic cell counter, and plated 1 ml/well in 24-well plates. Protamine sulfate was added between 1 and 100,000 ng/ml. HepI and hepIII were added between 0.5 and 500 μU/ml for 24, 48, or 72 hours. Whole cell counts from heparinase assays were converted to percent reduction in whole cell number relative to untreated.

[3] = test system: B16-F10 cells; assay: Whole cell proliferation assay; assay type: cell-based, mouse; settings: 10 ng/ml FGF2
Method: Adhesion cells (B16-F10, B16-BL6, SMCs, BAECs, NIH 3T3, SK-ES-1, Panc-1, and SW-1088) were seeded in 24-well plates at 1 ml/well as well as in 6-well plates at 3 ml/well, both at a density of 5×10^4 cells/ml. The plates were incubated for 24 hours at 37° C., 5% CO2. The cells were then washed with PBS and supplemented with media as appropriate. Cells were treated with PBS, heparin, polymer, or polymer-heparin conjugate, in 10 μl quantities at appropriate concentrations. Cells were incubated at 37° C., 5% CO2 for 72 hours, after which, each well was treated with 500 μl (24 well plates) or 1 ml (6 well plates) trypsin-EDTA for 5-15 minutes at room temperature, after which 400 μl was used to count the cell number with an electronic cell counter. […] Panc-1 cells were only tested in 10% FBS. Effects of conjugate were normalized to co-treatment without conjugate.
B16-F10 cells were grown until confluent, washed with PBS, treated with 3 ml trypsin-EDTA per 75 cm^2 tissue culture flask at 37° C. for 3-5 min, pelleted, and resuspended in FBS-deficient media. Cell concentration was determined with an electronic cell counter. […] Cells were treated with PBS, heparin, A5, or A5-heparin conjugate, added in 10 μl quantities, to yield a polymer concentration of 20 μg/ml and a heparin concentration of 1 μg/ml. […]

[4] = test system: Erk1, Erk2 in PC-3 cells; assay: Whole cell ELISA; assay type: cell-based, human; settings: 10 ng/ml FGF2 or 500 ng/ml heparin; 5, 15, or 60 minutes
Method: (§1) ELISA was performed on whole cells to determine a quantifiable relative level of kinase activity. PC-3 cells were grown until confluence in 75 cm^2 flasks. Each flask was washed with 20 ml PBS, and treated with 3 ml trypsin-EDTA at 37° C. for 3-5 minutes, until cells detached. Cells were centrifuged for 3 min at 195×g. The supernatant was aspirated, and the cells were resuspended in 10 ml media. The cell density was measured using an electronic cell counter, and the suspension was diluted to 50,000 cells/ml. 100 mm dishes were supplemented with 10 ml cell suspension per dish. After a 24 hour incubation the media was aspirated, the dishes washed with serum free media, and the cells supplemented with media containing 0.1% FBS and incubated for 24 hours. Dishes were treated with PBS, 10 ng/ml FGF2, or 500 ng/ml heparin for 5, 15, or 60 minutes. Media was then aspirated, the cells were washed with 10 ml PBS, and each dish was treated with 5 ml Trizol reagent. Cell extract was added to 96-well plates previously incubated for 1 hour with primary antibodies to Erk1, Erk2 or phospho-Erk1/2. […] The reaction was quenched with 1 M HCl, and the plates were analyzed using a UV plate reader at 450 nm. Data were quantified by comparing to a standardized curve with varying concentrations of untreated cells.

[5] = test system: phospho-Erk1/2 in PC-3 cells; assay: Whole cell ELISA; assay type: cell-based, human; settings: 10 ng/ml FGF2; 5, 15, or 60 minutes
Method: as §1

[6] = biological target: FGFR1c on PC-3 cells (human) (UniProt P11362); assay: cell-based or functional assay
UniProt P11362, sequence (P11362 22-822): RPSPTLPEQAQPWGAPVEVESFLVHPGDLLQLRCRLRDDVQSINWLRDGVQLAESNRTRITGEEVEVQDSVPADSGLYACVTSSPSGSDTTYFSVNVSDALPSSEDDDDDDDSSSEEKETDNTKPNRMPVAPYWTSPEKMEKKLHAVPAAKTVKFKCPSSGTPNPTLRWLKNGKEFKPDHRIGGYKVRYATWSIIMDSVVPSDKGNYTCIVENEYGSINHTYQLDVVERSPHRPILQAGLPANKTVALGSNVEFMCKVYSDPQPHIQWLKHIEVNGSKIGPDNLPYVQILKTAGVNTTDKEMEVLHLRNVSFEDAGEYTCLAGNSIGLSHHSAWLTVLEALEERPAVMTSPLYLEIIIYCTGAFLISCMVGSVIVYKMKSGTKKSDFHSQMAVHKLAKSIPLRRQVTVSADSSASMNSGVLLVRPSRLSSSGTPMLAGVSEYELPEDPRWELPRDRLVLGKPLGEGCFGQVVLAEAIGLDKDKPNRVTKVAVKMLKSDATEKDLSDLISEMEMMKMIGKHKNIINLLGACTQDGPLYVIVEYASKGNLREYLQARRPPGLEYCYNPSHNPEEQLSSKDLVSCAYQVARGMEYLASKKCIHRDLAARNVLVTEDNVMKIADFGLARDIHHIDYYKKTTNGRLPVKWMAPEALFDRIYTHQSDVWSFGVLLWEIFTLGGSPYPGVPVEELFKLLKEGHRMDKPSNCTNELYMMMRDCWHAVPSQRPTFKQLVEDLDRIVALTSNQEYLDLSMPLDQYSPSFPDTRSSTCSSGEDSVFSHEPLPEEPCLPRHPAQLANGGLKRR

**Q.** Which “effect of kinase inhibitor on heparin-mediated growth inhibition” value [1] does the source give for `COc1cccc(-c2cc(=O)c3ccccc3o2)c1N` [PD98059] here?
**A.** The value was “eliminate the ability of heparin to inhibit PC-3 growth; also recorded: prevented heparin-mediated growth inhibition”.

**Q.** And the “direct effect of kinase inhibitor on Daudi whole cell number” value [2]?
**A.** The value was “neither inhibition of PI3K with LY294002 (p>0.39) nor inhibition of Erk and Mek with PD98059 (p>0.64) had a direct effect”.

**Q.** Which results are given for `C[S+]([O-])c1ccc(-c2nc(-c3ccncc3)c(-c3ccc(F)cc3)[nH]2)cc1` (stereo not drawn) [SB203580]?
**A.** effect of kinase inhibitor on heparin-mediated growth inhibition [1]: did not eliminate the effect of heparin; also recorded: had no effect; direct effect of kinase inhibitor on Daudi whole cell number [2]: caused a significant reduction

**Q.** With `N#CC(=C(/N)Sc1ccccc1N)/C(C#N)=C(/N)Sc1ccccc1N` [U0126] as the compound, how does the “effect of kinase inhibitor on heparin-mediated growth inhibition” value [1] read?
**A.** The value was “eliminate the ability of heparin to inhibit PC-3 growth; also recorded: prevented heparin-mediated growth inhibition”.

**Q.** What does the source list for FGF2: Recombinant human FGF2?
**A.** inhibition of cell number by FGF2 alone [3]: 26.28±7.23%; increase in proliferation (whole cell number) ([1]; 100 ng/ml FGF2): ~15% and 15.6±3.1%; proliferation ([1]; FGF2 doses of 50 ng/ml and lower): did not promote significant proliferation; effect on Daudi proliferation ([2]; 10 ng/ml FGF2): did not affect Daudi proliferation; Erk1 or Erk2 levels [4]: no significant effect; upregulation of phospho-Erk1/2 [5]: 2-3 fold

**Q.** Which increase in proliferation of PC-3 cells at 100 ng/ml FGF2 [6] does the source give for “Recombinant human FGF2 (from UniProt P09038 135-288) (ligand)” here?
**A.** Its increase in proliferation of PC-3 cells at 100 ng/ml FGF2 is 15%.

**Q.** And the upregulation of phospho-Erk1/2 in PC-3 cells (whole cell ELISA) [6]?
**A.** Its upregulation of phospho-Erk1/2 in PC-3 cells (whole cell ELISA) is 2 to 3 fold.

**Q.** How did the “reduction in whole cell number” value ([2]; protamine sulfate 1×10^5 ng/ml, media with 10% FBS, three days) turn out when protamine sulfate was run?
**A.** The value was 12.9±2.8%.

**Q.** And the “effect on whole cell number” value ([2]; protamine sulfate concentrations less than 1×10^5 ng/ml, 10% FBS)?
**A.** Its value is “no effect”.
